Consider two compounds from patent US20260207554A1 (priority 2022, published 2026).

The test system of this data set is adult nondependent recreational opioid users. The following applies: in vivo.

Structures can show the parent of a compound that is named as a salt.

Turning to `COc1ccc2c3c1O[C@H]1C(=O)CC[C@@]4(O)[C@@H](C2)N(C)CC[C@]314.Cl` [Oxycodone HCl], the “Skin and subcutaneous tissue disorders, subjects with TEAE n (%)” value (human) is on record as “(29.5%)”. In addition, for the setting “human, po”, the “Abdominal pain upper, subjects with TEAE n (%)” value stood at 0%; the “Dizziness, subjects with TEAE n (%)” value is given as “(9.1%)”; the “Gastrointestinal disorders, subjects with TEAE n (%)” value was “(27.3%)”; the “Generalised tonic-clonic seizure, subjects with TEAE n (%)” value is 0%. Besides, where the note is “human, po”, the “Headache, subjects with TEAE n (%)” value is listed as “(4.5%)”; the “Hiccups, subjects with TEAE n (%)” value is on record as “(6.8%)”; the “Nervous system disorders, subjects with TEAE n (%)” value is “(22.7%)”; the “Number of subjects with at least one TEAE, n (%)” value was “(56.8%)”. For the same compound, where the note is “human, po”, the “Somnolence, subjects with TEAE n (%)” value is reported as “(9.1%)”; the “Tension headache, subjects with TEAE n (%)” value was found to be 0%; the “Toothache, subjects with TEAE n (%)” value turned out to be 0%; the “Tremor, subjects with TEAE n (%)” value was 0%. In addition, where the note is “human, po”, the “Uvulitis, subjects with TEAE n (%)” value came out at 0%; the “Vertigo, subjects with TEAE n (%)” value is listed as 0%; the “Vomiting, subjects with TEAE n (%)” value was “(15.9%)”; the “feeling hot, incidence of subjects” value amounted to 2.3%. Where the note is “human, po”, the “hot flush, incidence of subjects” value was 11.4%.
As for `COc1cccc(C2(O)CCCCC2CN(C)C)c1` (centres unmarked) [Tramadol HCl], the “Skin and subcutaneous tissue disorders, subjects with TEAE n (%)” value (human) was “(25.6%)”. Where the note is “human, po”, the “Abdominal pain upper, subjects with TEAE n (%)” value was 0%; the “Dizziness, subjects with TEAE n (%)” value is listed as “(2.6%)”; the “Gastrointestinal disorders, subjects with TEAE n (%)” value is reported as “(35.9%)”; the “Generalised tonic-clonic seizure, subjects with TEAE n (%)” value is on record as “(5.1%)”. In addition, for the setting “human, po”, the “Headache, subjects with TEAE n (%)” value is “(7.7%)”; the “Hiccups, subjects with TEAE n (%)” value is reported as “(2.6%)”; the “Number of subjects with at least one TEAE, n (%)” value was “(66.7%)”; the “Somnolence, subjects with TEAE n (%)” value was “(7.7%)”. Further, where the note is “human, po”, the “Tension headache, subjects with TEAE n (%)” value was determined as 0%; the “Toothache, subjects with TEAE n (%)” value was found to be 0%; the “Tremor, subjects with TEAE n (%)” value stood at 0%; the “Uvulitis, subjects with TEAE n (%)” value is “(2.6%)”. Besides, where the note is “human, po”, the “Vertigo, subjects with TEAE n (%)” value was “(2.6%)”; the “feeling hot, incidence of subjects” value was 2.5%; the “hot flush, incidence of subjects” value is 12.8%. Besides, the “subjects who experienced seizures” value (po) is “two subjects experienced seizures”.
